# Source: the PolyMetriX glass transition set
# ± gives the standard deviation of the reports.
row,Compound,glass transition temperature [°C]
1,*CC(*)(C)C(=O)Oc1ccc(C(=O)/C=C/c2ccc(OCc3ccccc3)cc2)cc1 (repeat unit),152.00
2,*C1CCCCC1S(*)(=O)=O (repeat unit),77.00
3,*C(F)(F)C(*)(OC(F)(F)F)OC(F)(F)F (repeat unit),-60.00
4,*c1c(C)cc(C(c2cccnc2)c2cc(C)c(N3C(=O)CC(Nc4ccc(Cc5ccc(NC6CC(=O)N(*)C6=O)cc5)cc4)C3=O)c(C)c2)cc1C (repeat unit),219.00
5,*C(=O)c1ccc2c(c1)C(=O)N(c1ccc(Cl)c(N3C(=O)c4ccc(*)cc4C3=O)c1)C2=O (repeat unit),305.00
6,*Oc1ccc(CC(NC(=O)CCc2ccc(OC(=O)COCC(*)=O)cc2)C(=O)OCCCCCCCC)cc1 (repeat unit),40.00
7,*Oc1ccc(C(c2ccc(OC(*)=O)cc2)(C(F)(F)F)C(F)(F)F)cc1 (repeat unit),176.00
8,*C(=O)OCCOC(=O)c1cccc(N2C(=O)c3ccc(*)cc3C2=O)c1 (repeat unit),220.00
9,*c1ccc2c(c1)C(=O)N(c1c(CC)cc(Cc3cc(CC)c(N4C(=O)c5ccc(C(*)(C(F)(F)F)C(F)(F)F)cc5C4=O)c(CC)c3)cc1CC)C2=O (repeat unit),266.00
10,*c1ccc(Oc2ccc(S(=O)(=O)c3ccc(Oc4ccc(N5C(=O)c6ccc(Oc7cccc8c(Oc9ccc%10c(c9)C(=O)N(*)C%10=O)cccc78)cc6C5=O)cc4)cc3)cc2)cc1 (repeat unit),201.00
11,*O[Si](C)(C)c1cccc2c1ccc1c([Si](*)(C)C)cccc12 (repeat unit),100.00
12,*CCCCCC(=O)S* (repeat unit),19.00
13,*Oc1c(-c2ccccc2)cc(Cc2cc(-c3ccccc3)c(OC(=O)CCCCCC(*)=O)c(-c3ccccc3)c2)cc1-c1ccccc1 (repeat unit),111.00
14,*C(=O)c1ccc2c(c1)C(=O)N(c1ccc(C(=O)Nc3ccc(N4C(=O)c5ccc(*)cc5C4=O)cc3)cc1)C2=O (repeat unit),300.00
15,*CC(*)c1ccc(OCCCC)cc1 (repeat unit) [Poly(p-n-butoxy styrene) ],47 ± 3.3
16,*Oc1ccc(C2(c3ccc(Oc4nc(*)nc(OC)n4)cc3)CCCCC2)cc1 (repeat unit),200.00
17,*CC(*)C(=O)NCCC[N+](C)(C)C (repeat unit),57.00
18,*Oc1ccc(Oc2ccc(C(=O)c3ccc(*)cc3)cc2)cc1-c1cccc(C(F)(F)F)c1 (repeat unit),134.00
19,*Oc1ccc(C2(c3ccc(OC(*)=O)cc3)CC3CC2C2CCCC32)cc1 (repeat unit),251.50
20,*c1ccc(C(c2ccccc2)c2ccc(N(c3ccc(C)cc3)c3ccc(-c4ccc(N(*)c5ccc(C)cc5)cc4)cc3)cc2)cc1 (repeat unit),239.00
21,*CCCCOCCCCOCCCCOC(=O)c1ccc(/N=C/c2cc(OCCC(C)CCCC(C)C)c(/C=N/c3ccc(C(=O)O*)cc3)cc2OCCC(C)CCCC(C)C)cc1 (repeat unit),-4.80
22,*CCCC(CC)CCNC(=O)c1ccc(C(=O)N*)cc1 (repeat unit),135.00
23,*c1ccc(OC(=O)c2cc(Cl)cc(C(=O)Oc3ccc(C4(*)OC(=O)c5ccccc54)cc3)c2)cc1 (repeat unit),313.00

row,Compound,glass transition temperature [°C]
1,*CC(*)(C)C(=O)OC1CCCC(C)C1 (repeat unit),89.00
2,*C1C(*)C2CC1C(C(=O)OCCc1ccccc1)C2C(=O)OCCc1ccccc1 (repeat unit),254.00
3,*/C(=C(/*)c1ccc(CCCC)cc1)c1ccccc1 (repeat unit),200.00
4,*C1CCCC(S(*)(=O)=O)C1 (repeat unit),108.00
5,*CCCCCCCCCCCC(=O)Oc1ccc(C2(c3ccc(OC(=O)c4ccc5c(c4)C(=O)N(*)C5=O)cc3)OC(=O)c3ccccc32)cc1 (repeat unit),114.00
6,*CC(*)c1ccc(Cl)c(F)c1 (repeat unit) [Poly(3-fluoro-4-chloro styrene) ],122 ± 0.6
7,*Nc1ccc(-c2ccc(NC(=O)c3cccc(C(*)=O)c3)c(O)c2)cc1O (repeat unit),386.00
8,*Cc1ccc(CNC(=O)CCCCCCCCCC(=O)N*)cc1 (repeat unit),110.00
9,*C(=O)Oc1ccc(OC(=O)c2ccc3c(c2)C(=O)N(c2ccc(S(=O)(=O)c4ccc(N5C(=O)c6ccc(*)cc6C5=O)cc4)cc2)C3=O)c(C(C)(C)C)c1 (repeat unit),179.00
10,*c1cc(CCCCCCOC(=O)Cc2ccccc2)c(*)s1 (repeat unit),45.00
11,*Oc1ccc(C2(c3ccc(OC(=O)CCCCCCCCCC(*)=O)cc3)c3ccccc3-c3ccccc32)cc1 (repeat unit),136.00
12,*CC(*)(C)C(=O)Oc1ccc(C(=O)OC)cc1 (repeat unit),109.00
13,*Oc1ccc(Oc2ccc(C(=O)c3cccc(C(=O)c4ccc(*)cc4)c3)cc2)cc1 (repeat unit),148.00
14,*c1ccc2c(c1)C(=O)N(c1cccc(Oc3ccc(N4C(=O)c5ccc(C(*)(C(F)(F)F)C(F)(F)F)cc5C4=O)cc3)c1)C2=O (repeat unit),260.00
15,*Oc1ccc(P(C)(=O)c2ccc(*)cc2)cc1 (repeat unit),238.00
16,*Nc1ccc(NC(=O)c2ccc(NC(=O)CCCCCCCCCCC(=O)Nc3ccc(C(*)=O)cc3)cc2)cc1C(=O)OCCCCCCCCCCCCCCCC (repeat unit),199.50
17,*CC(*)(Cl)C(=O)OCCC (repeat unit),66.00
18,*c1ccc2oc(-c3ccc(Oc4ccc(C(c5ccc(Oc6ccc(-c7nc8cc(C(*)(C(F)(F)F)C(F)(F)F)ccc8o7)cc6)cc5)(C(F)(F)F)C(F)(F)F)cc4)cc3)nc2c1 (repeat unit),255.00
19,*c1ccc(Oc2cc3ccccc3cc2Oc2ccc(N3C(=O)c4ccc(Oc5ccccc5Oc5ccc6c(c5)C(=O)N(*)C6=O)cc4C3=O)cc2)cc1 (repeat unit),216.00
20,*C(=O)c1ccc2c(c1)C(=O)N(c1ccc(C(=O)c3ccc(C(=O)c4ccc(N5C(=O)c6ccc(*)cc6C5=O)cc4)cc3)cc1)C2=O (repeat unit),286.00
21,*Oc1ccc2ccc(Oc3ccc(C(=O)Nc4ccc(Oc5ccc(C(C)(c6ccccc6)c6ccc(Oc7ccc(NC(=O)c8ccc(*)cc8)cc7)cc6)cc5)cc4)cc3)cc2c1 (repeat unit),177.00
22,*O[Si](C)(C)O[Si](C)(C)O[Si](C)(C)O[Si](C)(C)c1ccc(Oc2ccc([Si](*)(C)C)cc2)cc1 (repeat unit),-52.00
23,*c1ccc(-c2ccc3c(c2)C(CCCCCCC#N)(CCCCCCC#N)c2cc(*)ccc2-3)cc1 (repeat unit),90.00

row,Compound,glass transition temperature [°C]
1,*CCCCCCCCCCCC(=O)Oc1ccc(C(C)(C)c2ccc(OC(=O)c3ccc4c(c3)C(=O)N(*)C4=O)cc2)cc1 (repeat unit),93.00
2,*c1c(C)cc(C)c(N2C(=O)c3ccc(S(=O)(=O)c4ccc5c(c4)C(=O)N(*)C5=O)cc3C2=O)c1C (repeat unit),418.00
3,*c1ccc(C(c2ccccc2)(c2ccc(-n3c(=O)c4cc5c(=O)n(*)c(=O)c5cc4c3=O)cc2)C(F)(F)F)cc1 (repeat unit),436.00
4,*O[Si](C)(C)C#C[Si](C)(C)C#C[Si](C)(C)C#C[Si](C)(C)C#C[Si](C)(C)C#C[Si](C)(C)C#C[Si](*)(C)C (repeat unit),-12.60
5,*O[Si](*)(C)c1ccccc1 (repeat unit),-28
6,*c1ccc(Oc2ccc(N3C(=O)c4ccc(Oc5ccc6ccc(Oc7ccc8c(c7)C(=O)N(*)C8=O)cc6c5)cc4C3=O)cc2)cc1 (repeat unit),245.00
7,*CCCCCCCCCCCCN1C(=O)c2ccc(C(=O)c3ccc4c(c3)C(=O)N(*)C4=O)cc2C1=O (repeat unit),87.50
8,*c1ccc(Oc2ccc(N3C(=O)c4cccc(Oc5ccc(-c6ccc(Oc7cccc8c7C(=O)N(*)C8=O)cc6)cc5)c4C3=O)cc2)cc1 (repeat unit),277.00
9,*c1ccc2c(c1)C(CCCCCCCC)(CCCCCCCC)c1cc(-c3c(F)c(F)c(*)c(F)c3F)ccc1-2 (repeat unit),29.00
10,*c1cccc(Oc2ccc(S(=O)(=O)c3ccc(Oc4cccc(-n5c(=O)c6cc7c(=O)n(*)c(=O)c7cc6c5=O)c4)cc3)cc2)c1 (repeat unit),223.2
11,*CC(*)(C)C(=O)OCCCC (repeat unit) [poly(butyl methacrylate)],22.42 ± 6.3
12,*NC1CC(C)(C)CC(C)(CNC(=O)c2cc(NC(=O)C(C(C)CC)N3C(=O)c4ccccc4C3=O)cc(C(*)=O)c2)C1 (repeat unit),128.00
13,*Oc1ccc(C(c2ccc(OC(*)=O)cc2)C(Cl)(Cl)Cl)cc1 (repeat unit),230.00
14,*Oc1ccc(S(=O)(=O)c2ccc(Oc3ccc(-c4ccc(-c5ccc(*)cc5)cc4)cc3)cc2)cc1 (repeat unit),251.00
15,*Oc1cccc(NC(=O)CCCCC(=O)Nc2ccc(*)cc2)c1 (repeat unit),160.00
16,*Oc1ccc(CC(NC(=O)CCc2ccc(OC(=O)COCCOCC(*)=O)cc2)C(=O)OCCCCCCCC)cc1 (repeat unit),16.00
17,*CC(*)(C)C(=O)OC1CCC2CCCCC2C1 (repeat unit),145.00
18,*/C=C/c1ccc(/C=C/[Si](C)(CCC(F)(F)F)c2ccc([Si](*)(C)CCC(F)(F)F)cc2)cc1 (repeat unit),55.70
19,*CC(*)c1cc(C(=O)OCCCCCCCCCC)ccc1-c1ccc(OCCCCCCCC)cc1 (repeat unit),44.00
20,*/C=C/c1ccc(OC(=O)CCCCCCCCC(=O)Oc2ccc(-c3nnc(*)s3)cc2)cc1 (repeat unit),30.00
21,*Oc1ccc(Cc2ccc(OC(*)=O)cc2)cc1 (repeat unit),133.50
